# Key:
# [1] = tested on: pentagastrin-induced gastric acid secretion; assay: Inhibition of the pentagastrin-induced gastric acid secretion in rats; format: in vivo, male OFA rats; conditions: for Gastric acid, change / Gastric juice, change: vs control; for Gastric juice, treated: pentagastrin 0.05 mg/kg/hour; for ED50: Rattus norvegicus, ip, pentagastrin-induced, dose column i.p.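 On Gastric acid, treated: dosed 30 min before a 5 hour experiment.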
# Method: After being starved for 24 hours, male OFA rats weighing 250 to 320 g were anaestethized by 40% urethane (0.5 ml/100 g), then the trachea and jugular vein were cannulated (10 animals were used for each dose). A glass cannula was inserted to the stomach from the direction of the pylorus. The stomach was washed with lukewarm water and then purified by air blown through. The gastric acid secretion was induced by an infusion of histamine (5 mg/kg/hour), or pentagastrin (0.05 mg/kg/hour) or carbachol (0.01 mg/kg/hour), respectively. […]
# Acute toxicity, rat = conditions: in vivo
# Method: These investigations were carried out in OFI mice and OFA rats after starving for 24 hours. Ten animals were used for each dose. The number of doses was 3 or 4.
# [2] = tested on: carbachol-induced gastric acid secretion; assay: Inhibition of the carbachol-induced gastric acid secretion in dogs; format: in vivo, Beagle dogs
# Method: (§1) After being starved for 24 hours, Beagle dogs of both sexes weighing 6.3 to 11.9 kg were anaesthetized with sodium pentobarbital (30 mg/kg i.v.). The trachea and femoral veins on both sides were cannulated. After laparotomy the pylorus was ligated, a glass cannula was placed into the anterior side of the stomach and fixed by a purse string suture to the stomach wall, abdominal wall and abdominal skin. A rubber probe was introduced to the stomach through the mouth. The animal thus prepared was put onto a Pavlov's frame. The steady sleep was ensured by the infusion of sodium pentobarbital (5 mg/kg/hour). The stomach was washed with lukewarm water and emptied. The secretion-inducing agents (histamine, pentagastrin, carbachol) were administered in a volume of 12 ml/hour for 2 hours in the following doses:
# (§2) After 2 hours the infusion was stopped, the volume of the gastric juice produced was measured and its acid content was determined by titration with 0.1N NaOH by using Topfer's indicator. The compound of Example 1 was administered in a 25 mg/kg i.p. dose to the animals by 30 minutes before starting the infusion.
# [3] = tested on: pentagastrin-induced gastric acid secretion; assay: Inhibition of the pentagastrin-induced gastric acid secretion in dogs; format: in vivo, Beagle dogs
# Method: as §1, §2
# [4] = tested on: histamine-induced gastric acid secretion; assay: Inhibition of the histamine-induced gastric acid secretion in dogs; format: in vivo, Beagle dogs
# Method: as §1, §2
# [5] = po, female rat, precision restricted by solubility
# [6] = po, male rat, precision restricted by solubility
# [7] = 25 mg/kg i.p. + Carbachol 0.02 mg/kg/hr
# [8] = 25 mg/kg i.p. + Pentagastrin 0.03 mg/kg/hr
# [9] = 25 mg/kg i.p. + Histamine 0.1 mg/kg/hr
structure (smiles),measurement,setting,value
"CN(C)c1ccccc1C[S+]([O-])c1nc2ccccc2[nH]1 (stereo not shown) [NC-1300, 2-[(2-dimethylaminobenzyl)sulfinyl]-1H-benzimidazole, reference compound]","Gastric acid, treated",[1]; 5 mg/kg i.p.,1.25 mL
same,"Gastric acid, change",[1]; 5 mg/kg i.p.,-23%
same,"Gastric juice, change",[1]; 5 mg/kg i.p.,-26%
same,"Gastric juice, treated",[1]; 5 mg/kg i.p.,0.92 mL
same,"Gastric acid, treated",[1]; 10 mg/kg i.p.,0.47 mL
same,"Gastric acid, change",[1]; 10 mg/kg i.p.,-74%
same,"Gastric juice, change",[1]; 10 mg/kg i.p.,-70%
same,"Gastric juice, treated",[1]; 10 mg/kg i.p.,0.35 mL
same,"Gastric acid, treated",[1]; 20 mg/kg i.p.,0.32 mL
same,"Gastric acid, change",[1]; 20 mg/kg i.p.,-82%
same,"Gastric juice, change",[1]; 20 mg/kg i.p.,-77%
same,"Gastric juice, treated",[1]; 20 mg/kg i.p.,0.27 mL
same,ED50,[1],7.9 mg/kg
same,LD50,"Acute toxicity, rat; ip, female rat",245 mg/kg
same,LD50,"Acute toxicity, rat; ip, male rat",270 mg/kg
same,LD50,"Acute toxicity, rat; [5]",1400 mg/kg
same,LD50,"Acute toxicity, rat; [6]",1300 mg/kg
"Cc1cc(=O)[nH]c(SCc2ccccc2N(C)C)n1 [Example 1, 2-(2-dimethylaminobenzyl)thio-6-methyl-4(3H)-pyrimidinone]",Gastric acid volume,[2]; [7],1.84 ± 0.74 ml/kg/2 hr
same,"Gastric acid, change",[2]; [7],-80%
same,Gastric juice volume,[2]; [7],2.55 ± 0.79 ml/kg/2 hr
same,"Gastric juice, change",[2]; [7],-69%
same,"inhibition of gastric acid secretion, in words","[2]; dogs compared with rats, carbachol",with the same efficiency in dogs as in rats
same,Gastric acid volume,[3]; [8],1.43 ± 0.77 ml/kg/2 hr
same,"Gastric acid, change",[3]; [8],-76%
same,Gastric juice volume,[3]; [8],2.90 ± 0.48 ml/kg/2 hr
same,"Gastric juice, change",[3]; [8],-54%
same,"inhibition of gastric acid secretion, in words","[3]; dogs compared with rats, pentagastrin",with the same efficiency in dogs as in rats
same,"Gastric acid, treated",[1]; 6.25 mg/kg i.p.,1.79 mL
same,"Gastric acid, change",[1]; 6.25 mg/kg i.p.,-34%
same,"Gastric juice, change",[1]; 6.25 mg/kg i.p.,-31%
same,"Gastric juice, treated",[1]; 6.25 mg/kg i.p.,1.26 mL
same,"Gastric acid, treated",[1]; 12.5 mg/kg i.p.,1.21 mL
same,"Gastric acid, change",[1]; 12.5 mg/kg i.p.,-55%
same,"Gastric juice, change",[1]; 12.5 mg/kg i.p.,-51%
same,"Gastric juice, treated",[1]; 12.5 mg/kg i.p.,0.90 mL
same,"Gastric acid, treated",[1]; 25 mg/kg i.p.,0.51 mL
same,"Gastric acid, change",[1]; 25 mg/kg i.p.,-81%
same,"Gastric juice, change",[1]; 25 mg/kg i.p.,-78%
same,"Gastric juice, treated",[1]; 25 mg/kg i.p.,0.41 mL
same,ED50,[1],9.5 mg/kg
same,Gastric acid volume,[4]; [9],3.90 ml/kg/2 hr
same,"Gastric acid, change",[4]; [9],-75%
same,Gastric juice volume,[4]; [9],3.85 ml/kg/2 hr
same,"Gastric juice, change",[4]; [9],-69%
same,"inhibition of gastric acid secretion, in words","[4]; dogs compared with rats, histamine",with the same efficiency in dogs as in rats
same,LD50,"Acute toxicity, rat; ip, female rat",430 mg/kg
same,LD50,"Acute toxicity, rat; ip, male rat",450 mg/kg
same,LD50,"Acute toxicity, rat; [5]",2400 mg/kg
same,LD50,"Acute toxicity, rat; [6]",> 3000 mg/kg

# — patent US5037830A, “Novel thiouracyl derivatives, pharmaceutical compositions containing them and process for preparing same” (Richter Gedeon Vegyeszeti Gyar RT, priority 1989, dated 1991)
